# From PMC9729826, “Hypoaminoacidemia underpins glucagon-mediated energy expenditure and weight loss” (Cell Reports Medicine, 2022)
# Starred links: 1 amine or outer side, 2 acyl side, 3 side chain; linkers in the order of their positions; H or OH if unused. Non-standard residues stand in square brackets, D forms with d. Residues, ends and D or L forms follow the SMILES beside them. Groups on a side chain read outwards from the residue. *: point of attachment. C18 diacid = O=C(O)CCCCCCCCCCCCCCCCC(=O)*; γGlu = O=C(O)[C@H](CCC(=O)[*:2])N[*:1]; Aib = CC(C)(N)C(=O)O
# Assays:
# Assay type in all cases: in vivo, mouse
# [1] = system: diet-induced obese (DIO) C57BL/6 mice; test: Total amino acid supplementation in G108-treated DIO mice; details: n = 8/group
# Description: Lean 10-week-old C57BL/6 mice (N = 32) were provided ad libitum a 60 kcal% high fat diet (diet D12492, Table S2) ad libitum for 8 weeks. Half of the animals were then provided with a high fat standard protein diet (D08091803, Table S2) or a high fat standard protein diet supplemented with additional total amino acids (SP + TAA diet, Formula 1, Table S3). From each diet group, animals were allocated to receive either 7.5 nmol/kg G108 or vehicle control (N = 8/group). The subsequent four treatment groups were as follows: Vehicle/SP diet, G108/SP diet, Vehicle/SP + TAA diet, G108/SP + TAA diet. Food intake and body weight was recorded every 48 h during the study. Baseline body composition analysis (EchoMRI) was carried out in addition body composition analysis on day 18. […]
# (§1) To measure energy expenditure, DIO mice were placed into a Comprehensive Laboratory Animal Monitoring System (CLAMS, Columbus instruments, Columbus, US). […] Food intake was also measured electronically without the need to remove food. […] Feed efficiency was calculated as mg body weight change per kJ consumed.
# (§2) Plasma total amino acids were measured using fluorometric-based ELISA kits as described (MAK002, Sigma-Aldrich, Ab65347, Abcam). Plasma FGF21 was measured using a fluorescent based ELISA kit (ab229382, Abcam). Plasma triglyceride, cholesterol and leptin were measured using ELISA kits (ab65336, ab65390, ab199082, Abcam). […]
# [2] = system: diet-induced obese (DIO) C57BL/6 mice; test: Essential and non-essential amino acid supplementation in G108-treated DIO mice; details: 7.5 nmol/kg daily, 14 days, n = 8/group
# Description: Lean 10-week-old C57BL/6 mice (N = 48) were provided ad libitum with a 60 kcal% high fat diet (diet D12492, Table S2) for 8 weeks. They were then provided with either a high fat standard protein diet (SP) (D08091803), a high fat standard protein diet supplemented with essential amino acids (SP + EAA) (Formula 2, Table S3), or a high fat standard protein diet supplemented with non-essential amino acids (SP + NEAA) (Formula 3, Table S3), N = 16/group. Mice from each diet group received either 7.5 nmol/kg G108 or vehicle control resulting in the following six treatment groups, N = 8/group: Vehicle/SP, 7.5 nmol/kg G108/SP, Vehicle/SP +EAA, 7.5 nmol/kg G108/SP + EAA, Vehicle/SP + NEAA, 7.5 nmol/kg G108 + NEAA. Food intake and body weight was measured every 48 h. Prior to commencing their respective diets, baseline body composition analysis was (EchoMRI) was carried out in addition to body composition analysis on day 11. Tail venesection was carried out on day 13 of the study 4 h following respective treatments. […]
# as §1
# Gcgr^Δliver mice = test: Chronic study in hepatic-specific glucagon receptor knockout mice; details: 5 nmol/kg s.c. daily, 14 days, n = 7-8/group
# Method: Age-matched (12-week-old) Gcgr^flox/flox:Alb-Cre + (Gcgr^Δliver) and Gcgr^flox/flox:Alb-Cre- (control) mice were subcutaneously administered daily with either 5 nmol/kg G108 or vehicle control (HPLC water) for 14 days (N = 7–8/group). All mice were single-housed and had ad libitum access to water and a standard (20 kcal%) protein diet (diet D11112201, Table S2). Food intake and body weight were measured daily prior to administration of peptide each day. EchoMRI analysis was carried out at baseline and day 14. Tail venesection was carried out 4-h post-dose on day 14. Blood samples were immediately transferred on ice, centrifuged at 2800 × g for 10 min prior to plasma total amino acid analysis.
# Food intake was measured daily using a dedicated weighing scale and topped up accordingly. Body weight was recorded at 9 am daily or every 48 h using the same weighing scale. Body composition was measured using an EchoMRI analyser at various timepoints during chronic studies. […] Each scan lasted approximately 90 s where lean mass and fat mass were recorded in grams. […]
# as §2
smiles,measurement,setting,value
CC[C@H](C)[C@H](NC(=O)[C@H](Cc1ccccc1)NC(=O)[C@H](CCC(=O)O)NC(=O)[C@H](CCC(N)=O)NC(=O)[C@H](C)NC(=O)[C@H](CCCNC(=N)N)NC(=O)[C@H](CCCCN)NC(=O)[C@H](C)NC(=O)[C@H](CC(=O)O)NC(=O)[C@H](CC(C)C)NC(=O)[C@H](Cc1ccc(O)cc1)NC(=O)[C@H](CCCNC(=N)N)NC(=O)[C@H](CO)NC(=O)[C@H](Cc1ccc(O)cc1)NC(=O)[C@H](CC(=O)O)NC(=O)[C@H](CO)NC(=O)[C@@H](NC(=O)[C@H](Cc1ccccc1)NC(=O)[C@@H](NC(=O)CNC(=O)[C@H](Cc1c[nH]cn1)NC(=O)C(C)(C)NC(=O)[C@@H](N)Cc1c[nH]cn1)[C@@H](C)O)[C@@H](C)O)C(=O)N[C@@H](CCC(=O)O)C(=O)N[C@@H](Cc1c[nH]c2ccccc12)C(=O)N[C@@H](CC(C)C)C(=O)N[C@@H](CC(C)C)C(=O)N[C@@H](CCC(N)=O)C(=O)N[C@@H](CO)C(=O)N[C@@H](Cc1c[nH]cn1)C(=O)N[C@@H](Cc1c[nH]cn1)C(=O)N[C@@H](CCC(N)=O)C(=O)N[C@@H](Cc1c[nH]cn1)C(=O)N[C@@H](Cc1c[nH]cn1)C(=O)N1CCC[C@H]1C(=O)N[C@@H](CO)C(=O)N1CCC[C@H]1C(=O)N1CCC[C@H]1C(=O)N1CCC[C@H]1C(=O)N[C@@H](CCCCNC(=O)[C@H](CC(N)=O)NC(=O)CC[C@H](NC(=O)CCCCCCCCCCCCCCCCC(=O)O)C(=O)O)C(N)=O [Peptide G108] (H-H[Aib]HGTFTSDYSRYLDAKRAQEFIEWLLQSHHQHHPSPPPK([Asn-γGlu-C18 diacid])-NH2; N-terminus and C-terminus assumed),body weight on SP diet supplemented with total amino acids (SP + TAA),"[1]; 7.5 nmol/kg daily, 20 days",prevented G108-mediated weight loss independent of food intake
same,blood glucose over 4 hours after acute administration,"[1]; single 7.5 nmol/kg dose, following a transient increase",reduction in blood glucose that lasted several hours
same,effects on weight loss and feed efficiency on SP diet supplemented with either EAAs or NEAAs,[2],not suppressed
same,"effects on body weight, lean mass and plasma amino acids in mice lacking the hepatic GCGR",Gcgr^Δliver mice,completely refractory
